Here are results for one substance from patent publication US11830582B2, “Methods of designing novel antibody mimetics for use in detecting antigens and as therapeutic agents” (UNIVERSITY OF MIAMI, priority 2018, dated 2023).

Holding throughout (type): binding
In data set [1] the test system is intact DENV particles (DENV-1, -2 and -3). In words: Cross-reactivity direct ELISA vs DENV serotypes. The conditions noted are these: all DENV serotypes, 10^5 copies/mL coating. Here is the method:
(§1) To optimize all parameters of the direct ELISA protocol, Pierce 96-Well Polystyrene Plates, (ThermoFisher Scientific) were coated overnight at 4° C. with different concentrations of intact virus particles (ZIKV or DENV). The intact virus particles were diluted using 100 mM NaHCO3, pH 9.6, and aliquots of 100 μL were dispensed into each well of the plate using a multichannel pipette. This buffer pH assured a strong hydrophobic binding interaction between polystyrene and virus particles.
(§2) Intact particles both ZIKV and DENV were provided by Dr. Watkins group (University of Miami, Dep. of Pathology). The samples were controlled and counted by focus forming assay and RT-PCR, the details were reported in a previous work (Magnani et al., 2017). The Intact particles of ZIKV were inactivated using gamma irradiation. Assay biohazardous steps were carried out according to standard safety procedures.
(§3) After coating the plates overnight, the intact virus particles were removed by washing five times with the washing buffer (PBST) 10 mM PBS pH 7.4, 0.1% Tween-20, using an automated plate washer (MultiWash+, Molecular Devices, Sunnyvale, Calif.). Then, the plates were blocked with 200 μL of blocking buffers while shaking at 300 rpm at room temperature. The blocking buffers used were: Pierce™ Protein-Free (PBS) Blocking Buffer (PF), Blocker™ BLOTTO in TBS, SuperBlock™ Blocking Buffer, Blocker™ BSA (1×) in PBS. All blocking buffer were from ThermoFisher Scientific.
(§4) After 2 h the blocking buffers were removed using the same washing procedure mentioned above. 100 μL-aliquots of several dilutions of peptides biotinylated in 10 mM PBS pH 7.4 were placed in each well and incubated for 2 h while shaking at 300 rpm at room temperature. After the incubation, the unreacted peptides were removed by using the plate washer with the same settings. Then, 100 μL-aliquots of streptavidin-HRP (ThermoFisher Scientific) at a concentration of 20 ng/mL were added into each well and incubated for 30 min at room temperature without shaking. After the incubation, excess streptavidin-HRP was removed and the wells were washed with the plate washer five times using the washing buffer. Finally, 100 μL-aliquots of the Ultra TMB-ELISA Substrate Solution (ThermoFisher Scientific) were added and after 10 min the reaction was stopped by adding 100 μL aliquots of the TMB stop solution (SeraCare). The emission (450 nm) was read using a microplate reader (Clariostar Optima; BMG Labtech, Ortenberg, Germany).
The cross-reactivity among Flaviviruses is a key parameter to be tested for this assay. […]
A general note: In an ELISA, binding on a coated surface is turned into a signal by an enzyme label.

Data set [2] deals with intact ZIKV particles. In words: Direct ELISA matrix effect in urine and serum. The conditions noted are these: urine 1:1, serum 1:10 diluted; 10^5 and 10^6 copies/mL ZIKV. Here is the method: Usually, the presence of ZIKV in affected bodies is detected in biological fluids. Therefore, the analytical sensitivity of the selected peptides was tested in two biological matrices, namely, urine and serum. The matrix effect was investigated to understand how real biological fluids could modify the binding efficiency of the peptides.
FIG. 4 depicts the ELISA data using solutions of peptides with or without the urine and serum obtained coating clear 96-well plates with 10^^5 and 10^^6 copies/mL of intact ZIKV particles. Urine and serum were 1:1 and 1:10 diluted, respectively, with a concentrated peptide PBS solution (10 mM PBS, pH 7.4) to obtain a peptide final concentration of 0.5 μM for C3 and C6, 5 μM for C7 and 20 μM for mono-arm peptides (P2 and X1).

The test system of data set [3] is intact ZIKV particles. In words: Direct ELISA vs intact ZIKV particles. On the procedure:
Before biotin functionalization, peptides stock solution was reduced using trialkylphosphine (TCEP) from ThermoFisher Scientific (www.thermofisher.com) and after 1 h the gel was removed using TCEP gel spin separation columns (ThermoFisher Scientific). Then, 2-fold molar excess of EZ-Link™ Maleimide-PEG2-Biotin (ThermoFisher Scientific) was added to purified peptide solution and incubated for 1 h. […] Therefore, no further separation was carried out.
as §1, §2, §3, §4
The corresponding blank signals in triplicates were obtained by using all reagents without peptides. The blank signal was then subtracted to the average absorbance values for triplicate wells of each test.
The eight clamp peptides and the four mono-arm peptides selected, were tested vs intact ZIKV particles by using a direct ELISA. The peptides were biotinylated by using the maleimide-PEG2-biotin reagent that reacts with the sulfhydryl group of the cysteine efficiently and specifically by forming a stable thioether bond. The antibody 4G2 hybridoma mouse IgG2a was used as the reference and employed in combination with an anti-mouse IgG conjugated to HRP.
All analytical parameters involved in the development of ELISA were optimized by using 96-well plates coated with triplicate 10-fold serial dilutions of intact ZIKV particles.
Thus, the peptide concentrations reported in Table 5 were used to estimate the dynamic range and the LOD of the assay by using 10-fold serial dilutions of intact ZIKV particles from 10^^1 to 10^^8 copies/mL. […]

Regarding “C7: clamp peptide MDSPIK (22) - bridge GPGCCGPG (32) - KRNATP (26) (MDSPIKGPGCCGPGKRNATP; C7 Binds to Active Site 2; Bridge peptide; C3 Binds to Active Site 1)”, in data set [1], the “signal decrease DENV vs ZIKV” value is “around 70%”. Further, the “ELISA performance in urine and serum” value in data set [2] was “best performance among the three clamp peptides”. The LOD in data set [3] (LOD=SB+3×SDB, interpolated from calibration curve) was 3.7 log[ZIKV], copies/mL. Further, in data set [3] (delta absorbance 450 nm), the FPLR maximum is recorded as 0.95 ΔA and the FPLR minimum was 0.01 ΔA. The Long-term stability in data set [3] (dose-response performance of the assay) is >1 Month. For the same substance, in data set [3] (four-parameter logistic fit), the “FPLR C50” value is 5.8 log[ZIKV], copies/mL and the FPLR slope is 5.3. The “dynamic range of dose-response curve (orders of magnitude)” value in data set [3] (in words) is listed as “three-order of magnitude”. Besides, in data set [3] (optimized peptide concentration of Table 5 (0.5-20 μM; 4G2 1 μg/ml)), the “FPLR Dynamic Range” value is 4-7 log[ZIKV], copies/mL.
